Test results taken from patent publication US10274490B2, “Magnetic labeling of bacteria” (The General Hospital Corporation, priority 2012, dated 2019).

Experiments:
Nocardia Farcinica = experiment: Bioorthogonal labeling with Trehalose-TCO and Oregon Green-Tz, cell fluorescence microscopy; assay type: cell-based
Procedure: Nocardia Farcinica bacteria (ATCC 3308) at an OD600 of 0.8 in growth medium (0.1 mL) was added 100 μM Trehalose-TCO, Trehalose-fluorescein or DMSO (as a control) in growth media (1% DMSO). Bacteria were incubated at 37° C. with shaking for 16 h. Bacteria were then centrifuged (7 min., 8000 rpm) and washed (2×100 μL PBS solution containing 2% fetal bovine serum (FBS) and 1 mg/mL bovine serum albumin (BSA) PBS-F).
Bacteria treated with Trehalose-TCO were incubated with 50 μg/mL MFNP-Tz MNFP-Tz or 10 μM Oregon Green-Tz for 20 min. in PBS-F. Bacteria were then centrifuged (7 min., 8000 rpm) and washed (2×100 μL PBS-F). Bacteria were then fixed with 10% PFA in PBS (100 μL) for 20 min., centrifuged and resuspended in 10 μL PBS. 3 μL were spread out on a 96 wells plates (Nunc, Cat No 137103 (Roskilde, Denmark, pre-wet with PBS-F). Bacteria were dried out in an incubator 37 C for 30 min. then mounting media containing […] was added to samples. Imaging was done on a DeltaVision microscope (Applied Precision Instruments) at 60×.

Gram-positive bacteria [1] = experiment: Competitive inhibition of vancomycin-TCO labeling by unmodified vancomycin; conditions: 1-200 μM unmodified vancomycin added to 20 μM vancomycin-TCO; fluorescence and magnetic resonance; all Gram-positive bacteria; read-out: inhibition binding constant (Ki)
Procedure: For two-step labeling, the washed cells were incubated with 1-20 μM vancomycin TCO in PBS-F at room temperature for 30 min. For competition studies, 1-200 μM unmodified vancomycin was added to 20 μM vancomycin-TCO.
To further characterize the binding properties of vancomycin-TCO, competitive inhibition studies were performed in which unmodified vancomycin was introduced together with vancomycin-TCO, before reacting with MFNP-Tz.
FIGS. 8A and 8B show the results of competition studies of vancomycin-TCO using both fluorescence (FIG. 8A) and magnetic resonance (FIG. 8B) measurements. […] The inhibition binding constant (Ki) was about 6 μM for all Gram-positive bacteria, a value which was similar to that of vancomycin-TCO.

Gram-positive bacteria [2] = experiment: Fluorescence spectrometry of bacteria labeled with daptomycin-TCO and MFNP-Tz; assay type: cell-based; conditions: daptomycin-TCO at various concentrations, then MFNP-Tz
Procedure: (§1) For two-step labeling using Daptomycin-TCO, the drug conjugates were incubated in buffer solution containing 5 mM 4-(2-hydroxyethyl)-1-piperazineethanesulfonic acid (HEPES), 5 mM CaCl2, 2% FBS, and 1 mg/ml BSA at room temperature for 30 min. After washing twice with PBS-F, bacterial cells were incubated with 50 μg/ml MFNP-Tz in PBS-F for 20 min. at room temperature.
For fluorescence spectrometry, μNMR measurements, and flow cytometry, the cells were fixed in 10% paraformaldehyde (PFA) for 30 min., and then exchanged into PBS solution. Fluorescence measurements were taken using the Safire2 microplate reader (TECAN, Mannedorf, Switzerland). Increased relative fluorescence intensity (% RFU) values were calculated as 100×(Itarget−Inon)/Inon, where Itarget and Inon are intensity values of targeted and non-targeted bacteria, respectively. Flow cytometry was performed using LSRII (BD Biosciences). All labeling experiments and measurements were performed at least 3 times to confirm the reproducibility and robustness of the method.
(§2) Daptomycin-TCO was used to magnetically label bacteria using methods similar to those described in Example 1.

Gram-positive bacteria [3] = experiment: Magnetic resonance detection of bacteria labeled with daptomycin-TCO and MFNP-Tz; assay type: cell-based; conditions: daptomycin-TCO then MFNP-Tz
Procedure: as §1
All μNMR measurements were performed using the portable NMR system recently developed for point-of-care operations as described by Issadore, et al. Lab Chip 2011, 11, 2282-87. The polarizing magnetic field was ˜0.5 T. Transverse relaxation times were measured on 1-2 μL sample volumes, using Carry-Purcell-Meiboom-Gill pulse sequences with the following parameters: echo time, 3 ms; repetition time, 4 s; number of 180° pulses per scan, 900; number of scans, 7.
as §2

[4] = Molar extinction coefficient; assay type: physicochemical; conditions: 592 nm
[5] = tested on: S. aureus (Gram-positive); experiment: Gram staining, bright field microscopy; assay type: cell-based, Staphylococcus aureus; conditions: 1 mM Crystal Violet-TCO 3 min, iodine, 95% ethanol, Safranin counterstain
Procedure: Bacterial cells were smeared onto microscopic slides, and stained with standard crystal violet (20 mM) or CV-TCO (1 mM) in 20% ethanol solution containing 8 mg/ml ammonium oxalate for 3 min. After washing with deionized water, slides were treated with Gram Iodine (BD Biosciences), decolorized with 95% ethanol solution, and counterstained with Gram safranin (BD Biosciences). Slides were observed using a bright field light microscope.
To test the efficacy of Crystal Violet-TCO as a staining agent for Gram-positive bacteria, three representative samples were prepared: Staphylococcus aureus (S. aureus; Gram-positive), Escherichia coli (E. coli; Gram-negative), and the mixture of both bacterial species. Bacterial smears on glass slides were stained with a solution of Crystal Violet-TCO (1 mM) or Crystal Violet for 3 min., followed by treatment with Gram's iodine solution for one minute, decolorization with 95% ethanol, and counterstaining with red Safranin solution.

[6] = tested on: S. aureus (Gram-positive); experiment: Absorbance at 595 nm / UV-visible spectrometry of stained bacteria; assay type: cell-based, Staphylococcus aureus; conditions: E. coli (G−) as comparison
Procedure: (§3) Bacterial cells in media were first washed with phosphate buffered saline solution (PBS). For μNMR measurements, absorbance measurements, confocal microscopy, and transmission electron microscopy (TEM), the bacteria (10^8 in 100 μl) were stained with 200 μM CV-TCO in 20% ethanol solution containing 8 mg/ml ammonium oxalate for 5 min. at room temperature, and washed with PBS. Then the bacteria were treated with Gram Iodine solution for 1 min. and decolorized with 95% ethanol solution. For μNMR and confocal microscopy, bacteria were incubated with 50 μg/ml MFNP-Tz in PBS for 20 min. at room temperature, and washed twice with PBS. For confocal microscopy, labeled bacteria were mounted on microscopic slides with Vectashield containing propium iodide (Vector Laboratories), and imaged. For TEM, the stained and decolorized bacteria were incubated with 50 μg/ml GNP-Tz in PBS for 1 h, washed with PBS, and dehydrated with graded ethanol series before applying onto a carbon grid (Ted Pella).

Gram-positive species = experiment: μNMR cellular relaxivity of bacteria stained with Crystal Violet-TCO and labeled with MFNP-Tz; assay type: cell-based; conditions: panel of bacterial species
Procedure: Bacterial cells in media were first washed with phosphate buffered saline solution (PBS). For μNMR measurements, absorbance measurements, confocal microscopy, and transmission electron microscopy (TEM), the bacteria (10^8 in 100 μl) were stained with 200 μM CV-TCO in 20% ethanol solution containing 8 mg/ml ammonium oxalate for 5 min. at room temperature, and washed with PBS. Then the bacteria were treated with Gram Iodine solution for 1 min. and decolorized with 95% ethanol solution. For μNMR and confocal microscopy, bacteria were incubated with 50 μg/ml MFNP-Tz in PBS for 20 min. at room temperature, and washed twice with PBS. […]
To test whether bacteria labelled with Crystal Violet-TCO could be magnetically labeled via cycloaddition to the TCO group, bacteria stained with Crystal Violet-TCO were incubated with magnetofluorescent nanoparticles modified with tetrazine (MFNP-Tz). […] The T2 relaxation values of samples were measured using a miniaturized μNMR system. For comparative analyses, the absorption (at 595 nm) of the same samples was also measured. Cellular relaxivity (r2) was obtained by normalizing the measured 1/T2 values with bacterial concentration, and the r2 differences (Δr2) between targeted and control samples were calculated. […]

S. aureus [7] = experiment: μNMR sensitivity of the assay, serially diluted bacterial samples; assay type: cell-based, Staphylococcus aureus; conditions: Crystal Violet-TCO and MFNP-Tz
Procedure: as §3
To measure the sensitivity of the assay, measurements with serially diluted bacterial samples were performed and established a detection limit of about 4,000 bacteria with the experimental set-up used. […] Limit of detection was ˜4000 CFU.

S. aureus [8] = experiment: Confocal microscopy (MFNP-Tz) and TEM (GNP-Tz) of Crystal Violet-TCO stained bacteria; assay type: cell-based, Staphylococcus aureus
Procedure: as §3
The left, middle, and right panels show images of the red channel, green channel, and a merged image of the red and green channels, respectively (Red: propidium iodide for nuclear staining; Green: MNFP-Tz staining; Scale bar=10 μm).
Gold nanoparticles were used instead of magnetic nanoparticles to obtain higher contrast.

E. coli (Gram-negative) = experiment: Confocal microscopy control experiment; assay type: cell-based, Escherichia coli; conditions: Crystal Violet-TCO stained, decolorized
Procedure: as §3
The green channel (left) indicates MNFP-Tz, and the red channel (right) indicates propidium iodide. (Scale bar=5 μm).

[9] = tested on: Gram-positive and Gram-negative bacteria; experiment: μNMR detection before and after decolorization; assay type: cell-based
Procedure: as §3
The magnetic labeling detection strategy using Crystal Violet-TCO can be applied to detect both Gram-positive and Gram-negative bacteria. A modified protocol was adopted in which staining was performed without the decolorization process, which results in labeling both Gram-positive and Grain-negative bacteria, since the Gram-negative bacteria also retain the Crystal Violet-TCO. […]

C[C@]1(O[C@H]2O[C@H](CO)C(O)C(O)C2NC(=O)OC2CC/C=C/CCC2)OC(CO)[C@@H](O)C(O)C1O (stereo partly drawn) [Trehalose-TCO, 1-deoxy-α-D-gluco-hept-2-ulopyranosyl-(2→1)-2-deoxy-2-((E)-cyclooct-4-en-1-yl carbamate)-α-D-glucopyranoside]
kinetics of incorporation (Nocardia Farcinica; 0-16 h, subsequent labeling with Oregon Green-Tz): gradual increase in the extent of labeling | cell fluorescence (Nocardia Farcinica; 100 μM Trehalose-TCO 16 h, then 10 μM Oregon Green-Tz): Bright green fluorescence of the cells is observed

CN[C@H](CC(C)C)C(=O)N[C@H]1C(=O)N[C@@H](CC(N)=O)C(=O)N[C@H]2C(=O)N[C@H]3C(=O)N[C@H](C(=O)N[C@H](C(=O)O)c4cc(O)cc(O)c4-c4cc3ccc4O)[C@H](O)c3ccc(c(Cl)c3)Oc3cc2cc(c3O[C@@H]2O[C@H](CO)[C@@H](O)[C@H](O)[C@H]2O[C@H]2C[C@](C)(N)[C@H](O)[C@H](C)O2)Oc2ccc(cc2Cl)[C@H]1O [vancomycin]
Ki (Gram-positive bacteria [1]): ~6 µM

CCCCCCCCCC(=O)N[C@@H](Cc1c[nH]c2ccccc12)C(=O)N[C@@H](CC(N)=O)C(=O)N[C@@H](CC(=O)O)C(=O)N[C@@H]1C(=O)NCC(=O)N[C@@H](CCCNC(=O)OC2CC/C=C/CCC2)C(=O)N[C@@H](CC(=O)O)C(=O)N[C@H](C)C(=O)N[C@@H](CC(=O)O)C(=O)NCC(=O)N[C@H](CO)C(=O)N[C@@H]([C@@H](C)CC(=O)O)C(=O)N[C@@H](CC(=O)c2ccccc2N)C(=O)O[C@@H]1C (some centres unmarked) [daptomycin-TCO]
increased relative fluorescence intensities (Gram-positive bacteria [2]): up to 220% | cellular relaxivity (Gram-positive bacteria [3]): 1.32 s^−1[CFU/μL]^−1

CN(C)c1ccc(C(=C2C=CC(=[N+](C)C)C=C2)c2ccc(N(C)C)cc2)cc1 [crystal violet, reference compound]
molar extinction coefficient ε592 [4]: 89146 L/mol/cm

CC[N+](CCNC(=O)OC1CC/C=C/CCC1)=C1C=CC(=C(c2ccc(N(C)C)cc2)c2ccc(N(C)C)cc2)C=C1 (centres unmarked) [Crystal Violet-TCO, (E)-N-(4-(bis(4-(dimethylamino)phenyl)methylene)cyclohexa-2,5-dien-1-ylidene)-2-(((cyclooct-4-en-1-yloxy)carbonyl)amino)-N-ethylethanaminium chloride]
molar extinction coefficient ε592 [4]: 133013 L/mol/cm | colour after Gram staining and decolorization [5]: remained purple | UV absorbance of stained bacteria [6]: intense absorption at 595 nm | cellular relaxivity of Gram-positive species (Gram-positive species): significantly higher cellular relaxivity values when compared to Gram-negative bacteria | detection limit (S. aureus [7]): about 4,000 bacteria | Limit of detection (S. aureus [7]; ΔR2): ~4000 CFU | transmission electron microscopy observation (S. aureus [8]; CV-TCO then GNP-Tz): Gold nanoparticles were found distributed throughout the bacterial surface | confocal microscopy observation (S. aureus [8]; Crystal Violet-TCO then MFNP-Tz): uniform and high fluorescence signals in the bacterial cell wall | confocal microscopy MFNP-Tz signal (E. coli (Gram-negative)): absence of MFNP-Tz signal | μNMR detection ([9]; after decolorization): only Gram-positive species retained their signals | μNMR detection ([9]; before decolorization): both Gram-positive and negative bacteria could be magnetically labeled and detected
